What was measured:
Assay in all cases: relative viability (nuclei count vs DMSO), 5 days (fraction); higher = more cells survive
[1] = compound: CC(C)CCN1c2nc(Nc3cc(F)c(O)c(F)c3)ncc2N(C)C(=O)C1C [BI-D1870] + Cc1cc(Nc2cc(N3CCN(C)CC3)nc(Sc3ccc(NC(=O)C4CC4)cc3)n2)n[nH]1 [Tozasertib] (partner 0.1 µM)
Outline: (§1)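 Relative viability was taken as the ratio of nuclei in treated wells to nuclei in vehicle wells. Lung cancer cell lines in 1536-well plates received compounds by pin tool one day after seeding, either one drug alone or a fixed anchor-drug dose plus five library-drug doses (not always all listed) in √10 steps. Nuclei were counted on 4× images after 5 days of treatment, and values are medians of duplicate plates.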

[2] = compound: O=c1ncccn1[C@@H]1O[C@H](CO)[C@@H](O)[C@H]1O [Zebularine] + COc1cc2c(Oc3ccc(NC(=O)C4(C(=O)Nc5ccc(F)cc5)CC4)cc3F)ccnc2cc1OCCCN1CCOCC1 [Foretinib] (partner 0.25 µM)
Outline: as §1

[3] = compound: CC(C)CCN1c2nc(Nc3cc(F)c(O)c(F)c3)ncc2N(C)C(=O)C1C [BI-D1870] + C[C@]1(O)C[C@@H](c2nc(-c3ccc4ccc(-c5ccccc5)nc4c3)c3c(N)nccn32)C1 [Linsitinib] (partner 1 µM)
Outline: as §1

[4] = compound: O=c1ncccn1[C@@H]1O[C@H](CO)[C@@H](O)[C@H]1O [Zebularine] + Cc1nc(NC(=O)N2CCC[C@H]2C(N)=O)sc1-c1ccnc(C(C)(C)C(F)(F)F)c1 [Alpelisib] (partner 2 µM)
Outline: as §1

UMC-11
relative viability ([1]; first compound 0.04 µM): 0.197
relative viability ([1]; first compound 0.1265 µM): 0.205
relative viability ([1]; first compound 0.4 µM): 0.195
relative viability ([1]; first compound 1.265 µM): 0.191
relative viability ([1]; first compound 4 µM): 0.188
relative viability ([2]; first compound 1 µM): 1
relative viability ([2]; first compound 3.162 µM): 1.06
relative viability ([2]; first compound 10 µM): 0.626
relative viability ([2]; first compound 31.62 µM): 0.635
relative viability ([2]; first compound 100 µM): 0.357
relative viability ([3]; first compound 0.04 µM): 1.06
relative viability ([3]; first compound 0.1265 µM): 0.924
relative viability ([3]; first compound 0.4 µM): 0.972
relative viability ([3]; first compound 1.265 µM): 1.06
relative viability ([3]; first compound 4 µM): 0.693
relative viability ([4]; first compound 1 µM): 1.08
relative viability ([4]; first compound 3.162 µM): 0.958
relative viability ([4]; first compound 10 µM): 0.419
relative viability ([4]; first compound 31.62 µM): 0.789
relative viability ([4]; first compound 100 µM): 0.419

Reference: the supplement of paper PMC10307832
